According to patent publication US12122778B2, “Activating pyruvate kinase R” (Novo Nordisk Health Care AG, priority 2018, dated 2024):

Key:
[1] = molecular target: PKR(G332S) (Homo sapiens, UniProt P30613, G332S); test: Luminescence Biochemical Assay (Kinase Glo Plus), PKR G332S mutant; conditions: with FBP; for activation at 1.54 µM: 1.54 μM compound, read-out: AC50 LUM KGP FBP % Fold@1.54 μM mean; for AC50: read-out: AC50 LUM KGP FBP AC50 μM gmean (column A); for Emax: read-out: AC50 LUM KGP FBP MAX % FOLD mean
[2] = molecular target: PKR(R510Q) (Homo sapiens, UniProt P30613, R510Q); test: Luminescence Biochemical Assay (Kinase Glo Plus), PKR R510Q mutant; conditions: without FBP; for activation at 1.54 µM: 1.54 μM compound, read-out: AC50 LUM KGP woFBP % Fold@1.54 μM mean; for AC50: read-out: AC50 LUM KGP woFBP AC50 μM gmean; for Emax: read-out: AC50 LUM KGP woFBP MAX % FOLD mean
[3] = molecular target: PKR(wt) (Homo sapiens, UniProt P30613); test: Luminescence Biochemical Assay (Kinase Glo Plus), wild type PKR; conditions: without FBP; for activation at 1.54 µM: 1.54 μM compound, read-out: AC50 LUM KGP woFBP % Fold@1.54 μM mean; for AC50: read-out: AC50 LUM KGP woFBP AC50 μM gmean; for Emax: read-out: AC50 LUM KGP woFBP MAX % FOLD mean
PKR(wt), sequence (P30613 whole entry): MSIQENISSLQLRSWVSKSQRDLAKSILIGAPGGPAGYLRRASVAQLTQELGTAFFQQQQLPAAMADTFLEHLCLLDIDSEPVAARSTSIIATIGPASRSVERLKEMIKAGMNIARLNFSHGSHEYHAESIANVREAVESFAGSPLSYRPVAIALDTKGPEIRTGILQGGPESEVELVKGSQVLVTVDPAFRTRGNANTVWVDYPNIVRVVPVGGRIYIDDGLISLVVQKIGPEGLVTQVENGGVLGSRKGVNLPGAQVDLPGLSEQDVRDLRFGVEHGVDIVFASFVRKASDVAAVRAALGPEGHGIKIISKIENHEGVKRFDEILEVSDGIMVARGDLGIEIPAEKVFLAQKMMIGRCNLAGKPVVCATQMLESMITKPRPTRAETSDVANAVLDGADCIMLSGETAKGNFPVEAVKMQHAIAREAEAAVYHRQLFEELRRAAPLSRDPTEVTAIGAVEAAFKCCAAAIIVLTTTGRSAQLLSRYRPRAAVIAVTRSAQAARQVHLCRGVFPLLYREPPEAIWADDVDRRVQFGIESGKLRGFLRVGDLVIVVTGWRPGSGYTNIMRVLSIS

PKR(G332S), sequence (P30613 whole entry G332S): as the sequence (P30613 whole entry) above, with G332S counted along it
PKR(R510Q), sequence (P30613 whole entry R510Q): as the sequence (P30613 whole entry) above, with R510Q counted along it

| Compound | activation at 1.54 µM [1] [%] | AC50 [1] [µM] | Emax [1] [%] | activation at 1.54 µM [2] [%] | AC50 [2] [µM] | Emax [2] [%] | activation at 1.54 µM [3] [%] | AC50 [3] [µM] | Emax [3] [%] |
| --- | --- | --- | --- | --- | --- | --- | --- | --- | --- |
| O=C([C@H](O)c1ccccc1)N1CC2=C(C1)CN(S(=O)(=O)c1ccc(OC(F)F)cc1)C2 [Example 18-13, (2R)-1-{5-[4-(difluoromethoxy)benzenesulfonyl]-1H,2H,3H,4H,5H,6H-pyrrolo[3,4-c]pyrrol-2-yl}-2-hydroxy-2-phenylethan-1-one] | 75 to 250 | ≤ 0.1 | 75 to 250 | 250 to 50000 | ≤ 0.1 | 250 to 500 | 250 to 50000 | ≤ 0.1 | 250 to 500 |
| O=C([C@H](O)c1ccccc1)N1CC2=C(C1)CN(S(=O)(=O)c1cc(F)cc(F)c1)C2 [Example 18-52, (2R)-1-[5-(3,5-difluorobenzenesulfonyl)-1H,2H,3H,4H,5H,6H-pyrrolo[3,4-c]pyrrol-2-yl]-2-hydroxy-2-phenylethan-1-one] | 75 to 250 | 1 to 40 | 75 to 250 | 75 to 250 | 0.1 to 1 | 75 to 250 | 75 to 250 | 0.1 to 1 | 75 to 250 |
| O=C([C@H](O)c1ccc(F)cc1)N1CC2=C(C1)CN(S(=O)(=O)c1ccc(OC(F)F)cc1)C2 [Example 18-31, (2R)-1-{5-[4-(difluoromethoxy)benzenesulfonyl]-1H,2H,3H,4H,5H,6H-pyrrolo[3,4-c]pyrrol-2-yl}-2-(4-fluorophenyl)-2-hydroxyethan-1-one] | 75 to 250 | ≤ 0.1 | 75 to 250 | 250 to 50000 | ≤ 0.1 | 250 to 500 | 250 to 50000 | ≤ 0.1 | 250 to 500 |
| O=C(Cc1cccnc1)N1CC2=C(C1)CN(S(=O)(=O)c1ccc(OC(F)F)cc1)C2 [Example 18-26, 1-{5-[4-(Difluoromethoxy)benzenesulfonyl]-1H,2H,3H,4H,5H,6H-pyrrolo[3,4-c]pyrrol-2-yl}-2-(pyridin-3-yl)ethan-1-one] | 75 to 250 | ≤ 0.1 | 75 to 250 | 250 to 50000 | 0.1 to 1 | 250 to 500 | 250 to 50000 | 0.1 to 1 | 250 to 500 |
| O=C(C(O)c1cccc(F)c1)N1CC2=C(C1)CN(S(=O)(=O)c1ccc(OC(F)F)cc1)C2 (stereo not drawn) [Example 18-22, 1-{5-[4-(Difluoromethoxy)benzenesulfonyl]-1H,2H,3H,4H,5H,6H-pyrrolo[3,4-c]pyrrol-2-yl}-2-(3-fluorophenyl)-2-hydroxyethan-1-one] | 75 to 250 | ≤ 0.1 | 75 to 250 | 250 to 50000 | 0.1 to 1 | 250 to 500 | 75 to 250 | 0.1 to 1 | 250 to 500 |
| O=C(Cc1cccnc1)N1CC2=C(C1)CN(S(=O)(=O)c1ccccn1)C2 [Example 16-1, 2-(Pyridin-3-yl)-1-[5-(pyridine-2-sulfonyl)-1H,2H,3H,4H,5H,6H-pyrrolo[3,4-c]pyrrol-2-yl]ethan-1-one] | 75 to 250 | 1 to 40 | 75 to 250 | 75 to 250 | 1 to 40 | 75 to 250 | 75 to 250 | 1 to 40 | 250 to 500 |
| O=C([C@H](O)c1ccc(F)cc1)N1CC2=C(C1)CN(S(=O)(=O)c1ccc(C(F)(F)F)nc1)C2 [Example 18-64, (2R)-2-(4-fluorophenyl)-2-hydroxy-1-(5-{[6-(trifluoromethyl)pyridin-3-yl]sulfonyl}-1H,2H,3H,4H,5H,6H-pyrrolo[3,4-c]pyrrol-2-yl)ethan-1-one] | 75 to 250 | 1 to 40 | 75 to 250 | 75 to 250 | 1 to 40 | 75 to 250 | 75 to 250 | 1 to 40 | 75 to 250 |
| O=C([C@H](O)c1ccc(F)cc1)N1CC2=C(C1)CN(S(=O)(=O)c1ccccn1)C2 [Example 18-63, (2R)-2-(4-fluorophenyl)-2-hydroxy-1-[5-(pyridine-2-sulfonyl)-1H,2H,3H,4H,5H,6H-pyrrolo[3,4-c]pyrrol-2-yl]ethan-1-one] | 75 to 250 | 1 to 40 | 75 to 250 | 250 to 50000 | 0.1 to 1 | 250 to 500 | 75 to 250 | 0.1 to 1 | 250 to 500 |
| O=C(NCc1cccc(F)c1)N1CC2=C(C1)CN(S(=O)(=O)c1ccc3ncsc3c1)C2 [Example 21-36, 5-(1,3-Benzothiazole-6-sulfonyl)-N-[(3-fluorophenyl)methyl]-1H,2H,3H,4H,5H,6H-pyrrolo[3,4-c]pyrrole-2-carboxamide] | 75 to 250 | 0.1 to 1 | 75 to 250 | 75 to 250 | 1 to 40 | 250 to 500 | 75 to 250 | 1 to 40 | 250 to 500 |
| O=C([C@@H](O)c1ccc2c(c1)CNCC2)N1CC2=C(C1)CN(S(=O)(=O)c1ccc(OC(F)F)cc1)C2 (single isomer, unassigned) [Example 11-1] | 75 to 250 | 1 to 40 | 75 to 250 | 250 to 50000 | 0.1 to 1 | 250 to 500 | 75 to 250 | 1 to 40 | 75 to 250 |
| O=C(NCc1ccc(F)cc1)N1CC2=C(C1)CN(S(=O)(=O)c1ccc(OC(F)F)cc1)C2 [Example 21-13, 5-[4-(Difluoromethoxy)benzenesulfonyl]-N-[(4-fluorophenyl)methyl]-1H,2H,3H,4H,5H,6H-pyrrolo[3,4-c]pyrrole-2-carboxamide] | 75 to 250 | ≤ 0.1 | 75 to 250 | 250 to 50000 | 0.1 to 1 | 250 to 500 | 250 to 50000 | 0.1 to 1 | 250 to 500 |
| O=C(NCc1ccc(F)cc1)N1CC2=C(C1)CN(S(=O)(=O)c1ccccn1)C2 [Example 21-41, N-[(4-fluorophenyl)methyl]-5-(pyridine-2-sulfonyl)-1H,2H,3H,4H,5H,6H-pyrrolo[3,4-c]pyrrole-2-carboxamide] | 75 to 250 | 1 to 40 | 75 to 250 | 75 to 250 | 0.1 to 1 | 75 to 250 | 75 to 250 | 0.1 to 1 | 250 to 500 |
| O=C(Cc1ccc(F)cc1F)N1CC2=C(C1)CN(S(=O)(=O)c1cccnc1)C2 [Example 18-66, 2-(2,4-Difluorophenyl)-1-[5-(pyridine-3-sulfonyl)-1H,2H,3H,4H,5H,6H-pyrrolo[3,4-c]pyrrol-2-yl]ethan-1-one] | 75 to 250 | 1 to 40 | 75 to 250 | 75 to 250 | 1 to 40 | 250 to 500 | 75 to 250 | 1 to 40 | 250 to 500 |
| O=C(Cc1ccccn1)N1CC2=C(C1)CN(S(=O)(=O)c1ccc(OC(F)F)cc1)C2 [Example 8-1, 1-(5-[[4-(difluoromethoxy)benzene]sulfonyl]-1H,2H,3H,4H,5H,6H-pyrrolo[3,4-c]pyrrol-2-yl)-2-(pyridin-2-yl)ethan-1-one] | 75 to 250 | ≤ 0.1 | 75 to 250 | 250 to 50000 | 0.1 to 1 | 250 to 500 | 250 to 50000 | 0.1 to 1 | 250 to 500 |
| O=C([C@H](O)c1ccccc1)N1CC2=C(C1)CN(S(=O)(=O)c1cccc(OC(F)F)c1)C2 [Example 18-15, (2R)-1-{5-[3-(difluoromethoxy)benzene-sulfonyl]-1H,2H,3H,4H,5H,6H-pyrrolo[3,4-c]pyrrol-2-yl}-2-hydroxy-2-phenylethan-1-one] | 75 to 250 | ≤ 0.1 | 75 to 250 | 250 to 50000 | ≤ 0.1 | 250 to 500 | 75 to 250 | ≤ 0.1 | 75 to 250 |
| O=C([C@@H](O)c1ccc2c(c1)NCCO2)N1CC2=C(C1)CN(S(=O)(=O)c1ccc(OC(F)F)cc1)C2 (single isomer, unassigned) [Example 9-5] | 75 to 250 | ≤ 0.1 | 75 to 250 | 250 to 50000 | ≤ 0.1 | 250 to 500 | 250 to 50000 | ≤ 0.1 | 250 to 500 |
| O=C(NCc1cccnc1)N1CC2=C(C1)CN(S(=O)(=O)c1ccc3ncsc3c1)C2 [Example 20-56, 5-(1,3-Benzothiazole-6-sulfonyl)-N-(pyridin-3-ylmethyl)-1H,2H,3H,4H,5H,6H-pyrrolo[3,4-c]pyrrole-2-carboxamide] | 75 to 250 | 0.1 to 1 | 75 to 250 | 75 to 250 | 1 to 40 | 250 to 500 | 75 to 250 | 1 to 40 | 250 to 500 |
| O=C(NCc1ccccc1F)N1CC2=C(C1)CN(S(=O)(=O)c1ccccn1)C2 [Example 21-42] | 75 to 250 | 0.1 to 1 | 75 to 250 | 250 to 50000 | 0.1 to 1 | 250 to 500 | 250 to 50000 | 0.1 to 1 | 250 to 500 |
